Experimental data from US20040214849A1, “Parenteral administration of 6-hydroxy-oxymorphone for use as an analgesic” (priority 2001, published 2004).

Assays:
[1] = tested on: Opiate, Delta 1; assay: Opiate Delta 1 receptor binding assay
[2] = Pharmacokinetic study: blood plasma levels over 12 hours after administration of oxymorphone; type: in vivo
Protocol: (§1) In separate studies, blood plasma levels and indications of pain relief were recorded over a 12 hour period. FIGS. 1-4 show graphical representation of the data combining the two studies such that the effect of blood plasma levels on pain can be evaluated.
After this time, oxymorphone levels again drop and eventually fall to levels near the earlier plateau.

[3] = molecular target: T1, Opiate, Mu (Human Recombinant) (Homo sapiens, UniProt P35372); assay: Opiate Mu receptor binding assay
T1 construct: expressed in transfected cells
T1 sequence (P35372 whole entry): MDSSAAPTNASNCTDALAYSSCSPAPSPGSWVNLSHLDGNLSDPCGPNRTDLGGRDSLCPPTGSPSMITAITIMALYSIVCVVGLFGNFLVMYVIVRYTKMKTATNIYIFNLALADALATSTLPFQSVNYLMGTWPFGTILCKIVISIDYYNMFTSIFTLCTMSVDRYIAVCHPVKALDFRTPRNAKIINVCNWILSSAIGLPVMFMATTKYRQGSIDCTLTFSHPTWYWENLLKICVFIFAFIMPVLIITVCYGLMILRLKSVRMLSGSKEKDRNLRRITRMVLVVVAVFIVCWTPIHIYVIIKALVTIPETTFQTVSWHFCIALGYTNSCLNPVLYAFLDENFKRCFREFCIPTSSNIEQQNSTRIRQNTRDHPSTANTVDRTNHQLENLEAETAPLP

[4] = molecular target: T2, Opiate, Kappa (Human Recombinant) (Homo sapiens, UniProt P41145); assay: Opiate Kappa receptor binding assay
T2 construct: expressed in transfected cells
T2 sequence (P41145 whole entry): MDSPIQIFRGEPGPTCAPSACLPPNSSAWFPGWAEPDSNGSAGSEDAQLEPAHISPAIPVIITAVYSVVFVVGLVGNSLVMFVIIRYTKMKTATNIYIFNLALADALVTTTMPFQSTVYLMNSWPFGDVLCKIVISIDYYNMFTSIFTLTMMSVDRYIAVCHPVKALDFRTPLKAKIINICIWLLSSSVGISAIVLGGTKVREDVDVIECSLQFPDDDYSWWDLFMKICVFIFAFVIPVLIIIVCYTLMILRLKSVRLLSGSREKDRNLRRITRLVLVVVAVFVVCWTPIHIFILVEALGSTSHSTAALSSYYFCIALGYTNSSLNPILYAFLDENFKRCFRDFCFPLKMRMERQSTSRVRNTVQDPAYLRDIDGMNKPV

[5] = molecular target: T3, Opiate, Delta 2 (Human Recombinant) (Homo sapiens, UniProt P41143); assay: Opiate Delta 2 receptor binding assay
T3 construct: expressed in transfected cells
T3 sequence (P41143 whole entry): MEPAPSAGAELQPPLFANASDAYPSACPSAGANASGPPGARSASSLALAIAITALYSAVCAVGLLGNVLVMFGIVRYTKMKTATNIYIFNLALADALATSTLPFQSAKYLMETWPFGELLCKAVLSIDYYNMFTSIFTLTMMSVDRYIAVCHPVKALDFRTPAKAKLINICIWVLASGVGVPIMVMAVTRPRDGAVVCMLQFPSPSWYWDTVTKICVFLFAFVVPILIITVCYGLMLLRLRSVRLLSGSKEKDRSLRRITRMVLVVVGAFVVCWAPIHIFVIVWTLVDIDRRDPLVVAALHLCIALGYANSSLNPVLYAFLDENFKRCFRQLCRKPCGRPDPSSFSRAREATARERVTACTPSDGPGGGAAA

[6] = tested on: pain; assay: Pain relief (PID / categorical pain scores) compared with blood plasma levels; type: in vivo; conditions: based on the pharmacokinetic studies
Protocol: as §1
The amount administered will be dependent upon normal criteria such as patient weight, intensity of pain, and other factors. Based on the pharmacokinetic studies blood plasma levels around at least 0.05 ng/mL will provide some analgesia. The upper plasma level limit will be ultimately established by safety concerns. […] Subsequent doses may be required to maintain these blood levels.

| Compound | binding, Opiate Delta 1 ([1]; 10 nm (1.0 E−8)) | binding, Opiate Delta 1 ([1]; 10 μm (1.0 E−5)) | time of second spike of blood plasma level ([2]; from administration of oxymorphone) | binding, Opiate Mu (Human Recombinant) ([3]; 10 nm (1.0 E−8)) | binding, Opiate Mu (Human Recombinant) ([3]; 10 μm (1.0 E−5)) | binding, Opiate Kappa (Human Recombinant) ([4]; 10 nm (1.0 E−8)) | binding, Opiate Kappa (Human Recombinant) ([4]; 10 μm (1.0 E−5)) | binding, Opiate Delta 2 (Human Recombinant) ([5]; 10 nm (1.0 E−8)) | binding, Opiate Delta 2 (Human Recombinant) ([5]; 10 μm (1.0 E−5)) | blood plasma level that will provide some analgesia [6] | time of peak blood plasma level ([2]; after administration of oxymorphone) |
| --- | --- | --- | --- | --- | --- | --- | --- | --- | --- | --- | --- |
| CN1CC[C@]23c4c5ccc(O)c4O[C@H]2C(=O)CC[C@@]3(O)[C@H]1C5 [oxymorphone] | −18.26% | 89.03% | 4 to 6 h | – | – | – | – | – | – | – | – |
| CN1CC[C@]23c4c5ccc(O)c4O[C@H]2C(O)CC[C@@]3(O)[C@H]1C5 (stereo partly shown) [6-hydroxy oxymorphone] | −4.12% | 90.48% | – | 63.16% | 99.91% | 2.45% | 62.47% | 7.19% | 55.45% | at least 0.05 ng/mL | ≤ 2 h |
